Assay results as given in paper PMC7181660, “A novel specific PERK activator reduces toxicity and extends survival in Huntington's disease models” (Scientific Reports, 2020).

Key:
Experiment in all cases: biochemical
Type in all cases: biochemical
panel of 391 kinases [1] = molecular target: panel of 391 kinases (Homo sapiens, UniProt P15735); conditions: PHKg2, MK-28 1 µM, ATP 1 µM
panel of 391 kinases [2] = molecular target: panel of 391 kinases (Homo sapiens, UniProt P45983); conditions: JNK1, MK-28 1 µM, ATP 1 µM
panel of 391 kinases [3] = molecular target: panel of 391 kinases (Homo sapiens, UniProt P37023); conditions: ALK1/ACVRL1, MK-28 1 µM, ATP 1 µM
panel of 391 kinases [4] = molecular target: panel of 391 kinases (Homo sapiens, UniProt Q6PHR2); conditions: ULK3, MK-28 1 µM, ATP 1 µM
panel of 391 kinases [5] = molecular target: panel of 391 kinases (Homo sapiens, UniProt Q9NRH2); conditions: SNRK, MK-28 1 µM, ATP 1 µM
panel of 391 kinases [6] = molecular target: panel of 391 kinases (Homo sapiens, UniProt P54753); conditions: EPHB3, MK-28 1 µM, ATP 1 µM
panel of 391 kinases [7] = molecular target: panel of 391 kinases (Homo sapiens, UniProt Q9HBY8); conditions: SGK2, MK-28 1 µM, ATP 1 µM
panel of 391 kinases [8] = molecular target: panel of 391 kinases (Homo sapiens, UniProt Q04912); conditions: RON/MST1R, MK-28 1 µM, ATP 1 µM
panel of 391 kinases [9] = molecular target: panel of 391 kinases (Homo sapiens, UniProt O15530); conditions: PDK1/PDPK1, MK-28 1 µM, ATP 1 µM
panel of 391 kinases [10] = molecular target: panel of 391 kinases (Homo sapiens, UniProt Q6P5Z2); conditions: PKN3/PRK3, MK-28 1 µM, ATP 1 µM
panel of 391 kinases [11] = molecular target: panel of 391 kinases (Homo sapiens, UniProt P45985); conditions: MKK4, MK-28 1 µM, ATP 1 µM
panel of 391 kinases [12] = molecular target: panel of 391 kinases (Homo sapiens, UniProt Q13554); conditions: CAMK2b, MK-28 1 µM, ATP 1 µM
panel of 391 kinases [13] = molecular target: panel of 391 kinases (Homo sapiens, UniProt Q06187); conditions: BTK, MK-28 1 µM, ATP 1 µM
panel of 391 kinases [14] = molecular target: panel of 391 kinases (Homo sapiens, UniProt O14920); conditions: IKKb/IKBKB, MK-28 1 µM, ATP 1 µM
panel of 391 kinases [15] = molecular target: panel of 391 kinases (Homo sapiens, UniProt Q8WTQ7); conditions: GRK7, MK-28 1 µM, ATP 1 µM
panel of 391 kinases [16] = molecular target: panel of 391 kinases (Homo sapiens, UniProt Q9UKE5); conditions: TNIK, MK-28 1 µM, ATP 1 µM
panel of 391 kinases [17] = molecular target: panel of 391 kinases (Homo sapiens, UniProt P49761); conditions: CLK3, MK-28 1 µM, ATP 1 µM
panel of 391 kinases [18] = molecular target: panel of 391 kinases (Homo sapiens, UniProt Q86YV6); conditions: MYLK4, MK-28 1 µM, ATP 1 µM
panel of 391 kinases [19] = molecular target: panel of 391 kinases (Homo sapiens, UniProt Q96L34); conditions: MARK4, MK-28 1 µM, ATP 1 µM
panel of 391 kinases [20] = molecular target: panel of 391 kinases (Homo sapiens, UniProt Q9Y2H1); conditions: STK38L/NDR2, MK-28 1 µM, ATP 1 µM
panel of 391 kinases [21] = molecular target: panel of 391 kinases (Homo sapiens, UniProt P04629); conditions: TRKA, MK-28 1 µM, ATP 1 µM
panel of 391 kinases [22] = molecular target: panel of 391 kinases (Homo sapiens, UniProt Q7KZI7); conditions: MARK2/PAR-1Ba, MK-28 1 µM, ATP 1 µM
panel of 391 kinases [23] = molecular target: panel of 391 kinases (Homo sapiens, UniProt Q8TDC3); conditions: BRSK1, MK-28 1 µM, ATP 1 µM
panel of 391 kinases [24] = molecular target: panel of 391 kinases (Homo sapiens, UniProt Q14680); conditions: MELK, MK-28 1 µM, ATP 1 µM
panel of 391 kinases [25] = molecular target: panel of 391 kinases (Homo sapiens, UniProt Q15746); conditions: MLCK/MYLK, MK-28 1 µM, ATP 1 µM
[26] = read-out: % Enzyme Activity (relative to DMSO controls)

CN(/N=C\c1ccc(O)c(O)c1)c1nc(-c2ccccc2)cc(-c2ccccc2)n1 [MK-28]
% Enzyme Activity (relative to DMSO controls) (panel of 391 kinases [1]): 95.93% | remaining activity at 1 µM (panel of 391 kinases [1]; [26]): 96.2% | % Enzyme Activity (relative to DMSO controls) (panel of 391 kinases [2]): 98.63% | remaining activity at 1 µM (panel of 391 kinases [2]; [26]): 99.6% | % Enzyme Activity (relative to DMSO controls) (panel of 391 kinases [3]): 91.36% | remaining activity at 1 µM (panel of 391 kinases [3]; [26]): 94.7% | % Enzyme Activity (relative to DMSO controls) (panel of 391 kinases [4]): 97.75% | remaining activity at 1 µM (panel of 391 kinases [4]; [26]): 98.7% | % Enzyme Activity (relative to DMSO controls) (panel of 391 kinases [5]): 99.62% | remaining activity at 1 µM (panel of 391 kinases [5]; [26]): 100% | % Enzyme Activity (relative to DMSO controls) (panel of 391 kinases [6]): 97.56% | remaining activity at 1 µM (panel of 391 kinases [6]; [26]): 99.2% | % Enzyme Activity (relative to DMSO controls) (panel of 391 kinases [7]): 79.78% | remaining activity at 1 µM (panel of 391 kinases [7]; [26]): 81.3% | % Enzyme Activity (relative to DMSO controls) (panel of 391 kinases [8]): 102.49% | remaining activity at 1 µM (panel of 391 kinases [8]; [26]): 104% | % Enzyme Activity (relative to DMSO controls) (panel of 391 kinases [9]): 99.62% | remaining activity at 1 µM (panel of 391 kinases [9]; [26]): 100% | % Enzyme Activity (relative to DMSO controls) (panel of 391 kinases [10]): 98.68% | remaining activity at 1 µM (panel of 391 kinases [10]; [26]): 101% | % Enzyme Activity (relative to DMSO controls) (panel of 391 kinases [11]): 102.88% | remaining activity at 1 µM (panel of 391 kinases [11]; [26]): 103% | % Enzyme Activity (relative to DMSO controls) (panel of 391 kinases [12]): 93.40% | remaining activity at 1 µM (panel of 391 kinases [12]; [26]): 98% | % Enzyme Activity (relative to DMSO controls) (panel of 391 kinases [13]): 85.19% | remaining activity at 1 µM (panel of 391 kinases [13]; [26]): 85.4% | % Enzyme Activity (relative to DMSO controls) (panel of 391 kinases [14]): 96.13% | remaining activity at 1 µM (panel of 391 kinases [14]; [26]): 96.9% | % Enzyme Activity (relative to DMSO controls) (panel of 391 kinases [15]): 97.74% | remaining activity at 1 µM (panel of 391 kinases [15]; [26]): 98.5% | % Enzyme Activity (relative to DMSO controls) (panel of 391 kinases [16]): 100.50% | remaining activity at 1 µM (panel of 391 kinases [16]; [26]): 102% | % Enzyme Activity (relative to DMSO controls) (panel of 391 kinases [17]): 105.09% | remaining activity at 1 µM (panel of 391 kinases [17]; [26]): 110% | % Enzyme Activity (relative to DMSO controls) (panel of 391 kinases [18]): 92.82% | remaining activity at 1 µM (panel of 391 kinases [18]; [26]): 97.6% | % Enzyme Activity (relative to DMSO controls) (panel of 391 kinases [19]): 96.24% | remaining activity at 1 µM (panel of 391 kinases [19]; [26]): 99.8% | % Enzyme Activity (relative to DMSO controls) (panel of 391 kinases [20]): 94.10% | remaining activity at 1 µM (panel of 391 kinases [20]; [26]): 96% | % Enzyme Activity (relative to DMSO controls) (panel of 391 kinases [21]): 106.86% | remaining activity at 1 µM (panel of 391 kinases [21]; [26]): 108% | % Enzyme Activity (relative to DMSO controls) (panel of 391 kinases [22]): 98.73% | remaining activity at 1 µM (panel of 391 kinases [22]; [26]): 106% | % Enzyme Activity (relative to DMSO controls) (panel of 391 kinases [23]): 90.51% | remaining activity at 1 µM (panel of 391 kinases [23]; [26]): 92.8% | % Enzyme Activity (relative to DMSO controls) (panel of 391 kinases [24]): 84.50% | remaining activity at 1 µM (panel of 391 kinases [24]; [26]): 85.5% | % Enzyme Activity (relative to DMSO controls) (panel of 391 kinases [25]): 91.99% | remaining activity at 1 µM (panel of 391 kinases [25]; [26]): 93%
